Experiments:
[1] = tested on: T24; test: In vitro cell viability (CTG), T24; format: cell-based, Human; settings: T24 cells, 72 hours, CTG assay
Protocol: (§1) Collect cells in the exponential growth phase and count viable cells separately using a cell counter. Adjust the cell suspension to an appropriate concentration with the corresponding culture medium. Add 90 μL of the cell suspension to each well of a 96-well cell culture plate, with 3 replicate wells containing 5000 cells/well. Place the plate in an incubator at 37° C. with 5% CO2 overnight.
(§2) On the second day, add 10 μL of dimyricetin diselenide and cisplatin to the corresponding wells. The highest final concentration of dimyricetin diselenide is 300 μg/ml (i.e., 379 μM), and the highest final concentration of cisplatin is 300 μM. A total of 9 concentrations are prepared with a 3-fold dilution.
(§3) After 72 hours, detect cell viability using the CTG assay.
(§4) Using GraphPad Prism 8.0 software, an S-shaped dose-survival curve was plotted with log (inhibitor) as the x-axis and response as the y-axis, adopting the Variable slope (four parameters) model to calculate the IC50 value.

[2] = tested on: MBT-2; test: In vitro cell viability (CTG), MBT-2; format: cell-based, Mouse; settings: MBT-2 cells, 72 hours, CTG assay
Protocol: as §1, §2, §3, §4

[3] = tested on: HCC1954; test: In vitro cell viability (CTG), HCC1954; format: cell-based, Human; settings: HCC1954 cells, 72 hours, CTG assay
Protocol: as §1, §2, §3, §4

[4] = tested on: EMT-6; test: In vitro cell viability (CTG), EMT-6; format: cell-based, Mouse; settings: EMT-6 cells, 72 hours, CTG assay
Protocol: as §1, §2, §3, §4

[5] = tested on: HCT116; test: In vitro cell viability (CTG), HCT116; format: cell-based, Human; settings: HCT116 cells, 72 hours, CTG assay
Protocol: as §1, §2, §3, §4

[6] = tested on: CT-26.WT; test: In vitro cell viability (CTG), CT-26.WT; format: cell-based, Mouse; settings: CT-26.WT cells, 72 hours, CTG assay
Protocol: as §1, §2, §3, §4

[7] = tested on: MKN45; test: In vitro cell viability (CTG), MKN45; format: cell-based, Human; settings: MKN45 cells, 72 hours, CTG assay
Protocol: as §1, §2, §3, §4

[8] = tested on: MFC; test: In vitro cell viability (CTG), MFC; format: cell-based, Mouse; settings: MFC cells, 72 hours, CTG assay
Protocol: as §1, §2, §3, §4

[9] = tested on: 786-O; test: In vitro cell viability (CTG), 786-O; format: cell-based, Human; settings: 786-O cells, 72 hours, CTG assay
Protocol: as §1, §2, §3, §4

[10] = tested on: Renca; test: In vitro cell viability (CTG), Renca; format: cell-based, Mouse; settings: Renca cells, 72 hours, CTG assay
Protocol: as §1, §2, §3, §4

[11] = tested on: Hep G2; test: In vitro cell viability (CTG), Hep G2; format: cell-based, Human; settings: Hep G2 cells, 72 hours, CTG assay
Protocol: as §1, §2, §3, §4

[12] = tested on: H22; test: In vitro cell viability (CTG), H22; format: cell-based, Mouse; settings: H22 cells, 72 hours, CTG assay
Protocol: as §1, §2, §3, §4

[13] = tested on: HCC827; test: In vitro cell viability (CTG), HCC827; format: cell-based, Human; settings: HCC827 cells, 72 hours, CTG assay
Protocol: as §1, §2, §3, §4

[14] = tested on: LL/2(LLC1); test: In vitro cell viability (CTG), LL/2(LLC1); format: cell-based, Mouse; settings: LL/2(LLC1) cells, 72 hours, CTG assay
Protocol: as §1, §2, §3, §4

[15] = tested on: A375; test: In vitro cell viability (CTG), A375; format: cell-based, Human; settings: A375 cells, 72 hours, CTG assay
Protocol: as §1, §2, §3, §4

[16] = tested on: B16-F10; test: In vitro cell viability (CTG), B16-F10; format: cell-based, Mouse; settings: B16-F10 cells, 72 hours, CTG assay
Protocol: as §1, §2, §3, §4

[17] = tested on: PANC-1; test: In vitro cell viability (CTG), PANC-1; format: cell-based, Human; settings: PANC-1 cells, 72 hours, CTG assay
Protocol: as §1, §2, §3, §4

[18] = tested on: Panc 02; test: In vitro cell viability (CTG), Panc 02; format: cell-based, Mouse; settings: Pance 02 cells, 72 hours, CTG assay
Protocol: as §1, §2, §3, §4

[19] = tested on: DU145; test: In vitro cell viability (CTG), DU145; format: cell-based, Human; settings: DU145 cells, 72 hours, CTG assay
Protocol: as §1, §2, §3, §4

[20] = tested on: RM-1; test: In vitro cell viability (CTG), RM-1; format: cell-based, Mouse; settings: RM-1 cells, 72 hours, CTG assay
Protocol: as §1, §2, §3, §4

[21] = tested on: SK-OV-3; test: In vitro cell viability (CTG), SK-OV-3; format: cell-based, Human; settings: SK-OV-3 cells, 72 hours, CTG assay
Protocol: as §1, §2, §3, §4

[22] = tested on: H22 subcutaneous transplanted tumor; test: Pharmacodynamics of subcutaneous transplanted tumor in vivo (H22); set-up: species or system BALB/c mice
Protocol: • Animal species and strain: BALB/c mice • Drug administration history: None • Gender and age: Female, 6-7 weeks old • Breeder/supplier: Shanghai Jihui Laboratory Animal Breeding Co., Ltd. or other qualified suppliers • Experimental facility: Pengli Biology Animal Facility • Acclimation period: 3-7 days • Number of animals: 42 • Housing: SPF (Specific Pathogen Free) area • Indoor temperature: 20-26° C. • Indoor relative humidity: 40-70% • Lighting: Fluorescent lighting, 12 hours on (08:00-20:00) and 12 hours off • Animal housing: 2-6 mice per cage (same treatment group) • Food: Ad libitum access to irradiated feed (supplied by Jiangsu Xie Tong Pharmaceutical Bioengineering Co., Ltd., China) • Water: Ad libitum access to drinking water (tap water treated by reverse osmosis or autoclaving and acidified)
BALB/c mice were purchased from Shanghai Jihui Laboratory Animal Breeding Co., Ltd. for the H22 efficacy experiment. The animals were free of specific pathogens and arrived at Pengli Biology Animal Facility at approximately 5-6 weeks of age. The proposed animal handling procedures for the experimental protocol will be reviewed and approved by the IACUC (Institutional Animal Care and Use Committee) of Pengli Biology before the start of the experiment.
The H22 cell line used in this experiment was cultured in RPMI-1640 medium supplemented with 10% FBS in a CO2 incubator at 37° C. Prior to continuous culturing for ten passages, approximately 3×10^6 H22 cells were suspended in PBS and subcutaneously inoculated into each mouse at a volume of 100 μL. Mice were anesthetized with 3-4% isoflurane before inoculation.
When tumors grew to an average size of approximately 50-80 mm3, tumor-bearing mice were randomly divided into 4 groups of 8 mice each based on body weight and tumor size. The day of group assignment and drug administration was defined as Day 0. The grouping and dosing regimen are outlined in the table below.
Tumor Volume: Measure the tumor volume twice weekly after grouping for a consecutive 4 weeks. The calculation method for tumor volume (V) is as follows: V=(Length×Width^2)/2. The relative tumor volume (RTV) for each nude mouse is calculated as: RTV=Vt/V0, where Vt is the measured volume for each day and V0 is the volume at the start of treatment.
Relative Tumor Proliferation Rate (T/C %): Used to evaluate the antitumor activity of the drug. The relative tumor proliferation rate T/C (%) is calculated as the mean RTV of the treatment group (T) divided by the mean RTV of the negative control group (C), multiplied by 100%.
Tumor Growth Inhibition (TG1%): TG1%=(1−T/C)×100%, where T is the mean RTV of the treatment group and C is the mean RTV of the negative control group.

[23] = tested on: tumor cells; test: In vitro cell experiment, overall statement on the tumor cell panel; format: cell-based; settings: 21 tumor cell lines, 72 hours, CTG assay
Protocol: as §1, §2, §3, §4

Dimyricetin-yl-diselenide
IC50 [1]: 7.69 µM
IC50 [2]: 10.8 µM
IC50 [3]: 9.86 µM
IC50 [4]: 3.16 µM
IC50 [5]: 5.52 µM
IC50 [6]: 5.65 µM
IC50 [7]: 12 µM
IC50 [8]: 9.55 µM
IC50 [9]: 5.14 µM
IC50 [10]: 5.17 µM
IC50 [11]: 12.6 µM
IC50 [12]: 6.64 µM
IC50 [13]: 10 µM
IC50 [14]: 14.6 µM
IC50 [15]: 5.2 µM
IC50 [16]: 13.1 µM
IC50 [17]: 10.3 µM
IC50 [18]: 14.3 µM
IC50 [19]: 8.79 µM
IC50 [20]: 5.12 µM
IC50 [21]: 6.52 µM
tumor inhibition compared with the positive control (cisplatin) ([22]; 40 mg/kg dose group): better tumor inhibition than the positive control
TV (tumor volume) ([22]; G3, 40 mg/kg s.c. QD, 0 day (baseline)): 75.71 mm^3
TGI (tumor growth inhibition) ([22]; G3, 40 mg/kg s.c. QD, 3 days): 9.88%
TV (tumor volume) ([22]; G3, 40 mg/kg s.c. QD, 3 days): 257.17 mm^3
TGI (tumor growth inhibition) ([22]; G3, 40 mg/kg s.c. QD, 5 days): 5.58%
TV (tumor volume) ([22]; G3, 40 mg/kg s.c. QD, 5 days): 355.24 mm^3
TGI (tumor growth inhibition) ([22]; G3, 40 mg/kg s.c. QD, 7 days): 34.02%
TV (tumor volume) ([22]; G3, 40 mg/kg s.c. QD, 7 days): 532.85 mm^3
TGI (tumor growth inhibition) ([22]; G3, 40 mg/kg s.c. QD, 10 days): 41.86%
TV (tumor volume) ([22]; G3, 40 mg/kg s.c. QD, 10 days): 711.79 mm^3
TGI (tumor growth inhibition) ([22]; G3, 40 mg/kg s.c. QD, 12 days): 38.64%
TV (tumor volume) ([22]; G3, 40 mg/kg s.c. QD, 12 days): 1066.44 mm^3
TGI (tumor growth inhibition) ([22]; G3, 40 mg/kg s.c. QD, 14 days): 60.23%
TV (tumor volume) ([22]; G3, 40 mg/kg s.c. QD, 14 days): 1108.65 mm^3
TV (tumor volume) ([22]; G4, 20 mg/kg s.c. QD, 0 day (baseline)): 75.31 mm^3
TGI (tumor growth inhibition) ([22]; G4, 20 mg/kg s.c. QD, 3 days): 29.01%
TV (tumor volume) ([22]; G4, 20 mg/kg s.c. QD, 3 days): 218.25 mm^3
TGI (tumor growth inhibition) ([22]; G4, 20 mg/kg s.c. QD, 5 days): 19.28%
TV (tumor volume) ([22]; G4, 20 mg/kg s.c. QD, 5 days): 314.27 mm^3
TGI (tumor growth inhibition) ([22]; G4, 20 mg/kg s.c. QD, 7 days): 32.35%
TV (tumor volume) ([22]; G4, 20 mg/kg s.c. QD, 7 days): 544.04 mm^3
TGI (tumor growth inhibition) ([22]; G4, 20 mg/kg s.c. QD, 10 days): 39.14%
TV (tumor volume) ([22]; G4, 20 mg/kg s.c. QD, 10 days): 741.18 mm^3
TGI (tumor growth inhibition) ([22]; G4, 20 mg/kg s.c. QD, 12 days): 29.67%
TV (tumor volume) ([22]; G4, 20 mg/kg s.c. QD, 12 days): 1210.83 mm^3
TGI (tumor growth inhibition) ([22]; G4, 20 mg/kg s.c. QD, 14 days): 43.53%
TV (tumor volume) ([22]; G4, 20 mg/kg s.c. QD, 14 days): 1542.11 mm^3
inhibitory effect on the liver cancer tumor model in vivo ([22]; H22 model, 40 and 20 mg/kg s.c.): significant inhibitory effect
inhibitory effect on tumor cells in vitro [23]: significant inhibitory effect

Source: US20250127753A1, “PHARMACEUTICAL APPLICATION OF DIMYRICETIN-YL-DISELENIDE IN TUMORS” (Shanghai Spark Pharmaceutical Co., Ltd., priority 2023, published 2025)
